Source: ChEMBL document CHEMBL5576149, “Discovery of Potent STT3A/B Inhibitors and Assessment of Their Multipathogen Antiviral Potential and Safety” (J Med Chem, 2024)
Values after ≈ are worked out from the molar mass of the structure shown. Active and inactive are the calls of the source. The rule behind the calls is not given here.

Key:
[1] = Inhibition of STT3A/STT3B mediated N-linked glycosylation in human H1-HeLa cells stably transduced with ERluc by measuring effective concentration of inhibition incubated for 18 hrs by One-Glo luciferase reporter assay; type: cell-based
[2] = Cytotoxicity against human MRC5 cells by luminescence-based cell viability assay; type: toxicity
[3] = test system: A549; test: Cytotoxicity against human A549 cells; type: functional
[4] = test system: Human respirovirus 3; test: Antiviral activity against Human parainfluenza virus 3 JS infected in human A549 cells assessed as reduction in viral proliferation incubated for 44 hrs by Hoechst dye based fluorescence analysis; type: functional, organism-based; settings: Human respirovirus 3, JS, A549, 44 h
[5] = Chromatographic hydrophobicity index, logD of the compound at pH 7.4; type: physicochemical; settings: buffer
[6] = test system: SARS-CoV-2; test: Antiviral activity against SARS-CoV-2 infected in human A549 cells assessed as reduction in viral growth incubated for 24 hrs by Nano-Glo reagent based analysis; type: functional, organism-based; settings: Severe acute respiratory syndrome coronavirus 2, A549, 24 h
[7] = Unbound clearance in rat liver microsomes at 0.5 uM incubated upto 45 mins; type: ADME, Microsome; settings: 0.75 h
[8] = test system: A549; test: Cytotoxicity against human A549 cells by fluorescent cell imaging assay; type: functional
[9] = test system: Human coronavirus 229E; test: Antiviral activity against Human coronavirus 229E infected in human MRC5 cells assessed as reduction in viral growth incubated for 68 hrs by CellTiter-Glo luminescence assay; type: functional, organism-based; settings: MRC5, 68 h
[10] = Unbound clearance in human liver microsomes at 0.5 uM incubated upto 45 mins; type: ADME, Microsome; settings: 0.75 h
[11] = Neurotoxicity in human iPSC cells co-cultured with human astrocyte assessed as inhibition of cell growth at 300 nM incubated for 48 hr by multi-electrode array analysis relative to control; type: toxicity, cell-based; settings: ipsc, 48 h, 0.3 µM
[12] = test system: Influenza A virus; test: Antiviral activity against influenza A virus H1N1 A/Puerto Rico/8/1934 infected in MDCK cells assessed as reduction in viral replication measured after 3 hrs of post-infection by RT-qPCR analysis relative to control; type: functional; design: scale not given: the % may be the effect or the level left
[13] = test system: Influenza A virus; test: Antiviral activity against influenza A virus H1N1 A/Puerto Rico/8/1934 infected in MDCK cells assessed as reduction in viral replication measured after 30 hrs of post-infection by RT-qPCR analysis relative to control; type: functional; design: scale not given: the % may be the effect or the level left
[14] = Cytotoxicity against human Hepatocyte cultured as 3D spheroids incubated for 14 days by CellTiter-Glo luminescence assay; type: toxicity, cell-based; settings: hepatocytes cultured as 3D spheroids
[15] = Bioavailability in Wistar Han rat at 2 mg/kg,po or 1 mg/kg,iv administrated upto 60 mins by LC-MS/MS analysis; type: ADME, organism-based; settings: in vivo
[16] = Unbound clearance in Wistar Han rat at 2 mg/kg,po or 1 mg/kg,iv administrated upto 60 mins by LC-MS/MS analysis; type: ADME, organism-based; settings: in vivo, 1 h
[17] = Solubility of compound in FaSSIF; type: ADME
[18] = Volume of distribution at steady state in Wistar Han rat at 2 mg/kg,po or 1 mg/kg,iv administrated upto 60 mins by LC-MS/MS analysis; type: ADME, organism-based; settings: in vivo, 1 h
[19] = MRT in Wistar Han rat at 2 mg/kg,po or 1 mg/kg,iv administrated upto 60 mins by LC-MS/MS analysis; type: ADME, organism-based; settings: in vivo
[20] = test system: HepG2; test: Selectivity ratio of apparent dissociation constant for binding affinity to STT3A in human HepG2 cells to apparent dissociation constant for binding affinity to STT3B in human HepG2 cells; type: cell-based
[21] = Bioavailability in CD1 mouse at 2 mg/kg,po or 1 mg/kg,iv administrated upto 60 mins by LC-MS/MS analysis; type: ADME, organism-based; settings: in vivo
[22] = Volume of distribution at steady state in CD1 mouse at 2 mg/kg,po or 1 mg/kg,iv administrated upto 60 mins by LC-MS/MS analysis; type: ADME, organism-based; settings: in vivo, 1 h
[23] = Inhibition of STT3A/STT3B mediated N-linked glycosylation in STT3B knockout human H1-HeLa cells stably transduced with Halo3N-ER sequence by measuring effective concentration incubated for 24 hrs by Western blotting analysis; type: cell-based
[24] = test system: H1-HeLa; test: Inhibition of STT3A/STT3B in human H1-HeLa cells assessed as upregulation of SDF2L1 gene expression incubated for 24 hrs; type: cell-based
[25] = test system: Influenza A virus; test: Antiviral activity against influenza A virus H1N1 A/Puerto Rico/8/1934 infected in MDCK cells assessed as reduction in viral proliferation incubated for 24 hrs by FFU assay; type: functional, organism-based; settings: H1N1 A/Puerto Rico/8/1934, MDCK
[26] = Unbound clearance in CD1 mouse at 2 mg/kg,po or 1 mg/kg,iv administrated upto 60 mins by LC-MS/MS analysis; type: ADME, organism-based; settings: in vivo, 1 h
[27] = Inhibition of STT3A/STT3B mediated N-linked glycosylation in STT3A knockout human H1-HeLa cells stably transduced with Halo3N-ER sequence by measuring effective concentration incubated for 24 hrs by Western blotting analysis; type: cell-based
[28] = test system: H1-HeLa; test: Inhibition of STT3A/STT3B in human H1-HeLa cells assessed as upregulation of DERL3 gene expression incubated for 24 hrs; type: cell-based
[29] = test system: H1-HeLa; test: Inhibition of STT3A/STT3B in human H1-HeLa cells assessed as upregulation of MANF gene expression incubated for 24 hrs; type: cell-based
[30] = test system: H1-HeLa; test: Inhibition of STT3A/STT3B in human H1-HeLa cells assessed as upregulation of […] gene expression incubated for 24 hrs; type: cell-based
[31] = MRT in CD1 mouse at 2 mg/kg,po or 1 mg/kg,iv administrated upto 60 mins by LC-MS/MS analysis; type: ADME, organism-based; settings: in vivo
[32] = Unbound clearance in mouse liver microsomes at 0.5 uM incubated upto 45 mins; type: ADME, Microsome; settings: 0.75 h

CN(C)S(=O)(=O)c1ccc(N2CCCC2)c(-c2cc3ccncc3[nH]2)c1
EC50 [1]: 394 nM

CN(C)S(=O)(=O)c1cnc(N2CCCC2)c(-c2cc3ccccc3[nH]2)c1
EC50 [1]: 779 nM

O=C([C@@H]1CCN1S(=O)(=O)c1ccc(N2CC[C@@H](O)C2)c(-c2cc3ccccc3[nH]2)c1)N1CCOCC1
CC50 [2]: 926 nM
CC50 [3]: 2000 nM
EC50 [4]: 57 nM
chromatographic logD [5]: 3.5
EC50 [6]: 4 nM
CL free [7]: 1998 mL/min/kg
CC50 [8]: 1950 nM
EC50 [1]: 5 nM
EC50 [9]: 7 nM
CL free [10]: 904 mL/min/kg

CN(C)S(=O)(=O)c1ccc(N2CCCC2)c(C(=O)Nc2ccc(F)cc2)c1
EC50 [1]: 1390 nM

CCCC(C)C1(CC)C(=O)NC(=O)NC1=O (stereo unspecified) [PENTOBARBITAL]
Activity [11]: Non-Toxic

Cc1ccc2cc(-c3cc(S(=O)(=O)N(C)CC(=O)N4CCOCC4)ccc3N3CCCC3)[nH]c2c1
CC50 [2]: 44 nM
CC50 [3]: 13 nM
EC50 [4]: 6 nM
Activity [12]: >90%
EC50 [6]: 4 nM
CC50 [8]: 35 nM
EC50 [1]: 2 nM
EC50 [9]: 2 nM
Activity [13]: 60%

O=C([C@H]1CCN1S(=O)(=O)c1ccc(N2CCC(F)(F)C2)c(-c2cc3ccccc3[nH]2)c1)N1CCOCC1
chromatographic logD [5]: 5.3
CL free [7]: 3480 mL/min/kg
IC50 at 14 days [14]: 2500 nM
EC50 [1]: 615 nM

Cc1cnc(NC(=O)c2cc(S(=O)(=O)N(C)C)ccc2N2CCCC2)s1
bioavailability [15]: 0.6%
EC50 [4]: 379 nM
chromatographic logD [5]: 4.9
EC50 [6]: 1360 nM
CL free [16]: ~ 10000 ml/min.kg
CL free [7]: ~ 2000 ml/min.kg
IC50 at 14 days [14]: 20000 nM
solubility [17]: < 1 µg/mL
EC50 [1]: 589 nM
EC50 [9]: 1360 nM
Vdss [18]: 1.9 L/kg
MRT [19]: 18 min

CN(C)S(=O)(=O)c1ccc(N2CCCC2)c(-c2cc3ccc(F)cc3[nH]2)c1
EC50 [1]: 62 nM

CN(C)S(=O)(=O)c1ccc(N2CCCC2)c(C(=O)Nc2ccccc2)c1
EC50 [1]: 5010 nM

CN(C)S(=O)(=O)c1ccc(N2CCCC2)c(C(=O)Nc2ncc(C3CC3)s2)c1
EC50 [1]: 332 nM

Cc1ccc2[nH]c(-c3cc(S(=O)(=O)N(C)C)ccc3N3CCCC3)cc2c1
EC50 [1]: 32 nM

CN(C)S(=O)(=O)c1ccc(N2CC[C@@H](O)C2)c(-c2cc3ccccc3[nH]2)c1
chromatographic logD [5]: 4.8
CL free [7]: 1795 mL/min/kg
IC50 at 14 days [14]: 6300 nM
EC50 [1]: 513 nM
CL free [10]: 160 mL/min/kg

Cc1ccc2cc(-c3cc(S(=O)(=O)N(C)CC(=O)N4CCOC[C@@H]4C)ccc3N3CCCC3)[nH]c2c1
CC50 [2]: 199 nM
Selectivity ratio [20]: 10
EC50 [4]: 12 nM
CC50 [8]: 57 nM
EC50 [1]: 1 nM
EC50 [9]: 5 nM

C[S@](=N)(=O)c1ccc(N2CC[C@H](O)C2)c(-c2cc3ccccc3[nH]2)c1
chromatographic logD [5]: 2.7
EC50 [1]: 279 nM
CL free [10]: < 12 mL/min/kg

CN(C)S(=O)(=O)c1ccc(N2CCC(F)(F)C2)c(-c2cc3ccccc3[nH]2)c1
chromatographic logD [5]: 6.6
CL free [7]: 27713 mL/min/kg
EC50 [1]: 107 nM
CL free [10]: 526 mL/min/kg

CN(C)S(=O)(=O)c1ccc(N2CCC2)c(-c2cc3ccccc3[nH]2)c1
chromatographic logD [5]: 6.5
CL free [7]: 7395 mL/min/kg
EC50 [1]: 31 nM
CL free [10]: 117 mL/min/kg

CN(C)S(=O)(=O)c1ccc(N2CCCC2)c(-c2cc3ccccc3[nH]2)c1
CC50 [2]: 688 nM
CC50 [3]: 590 nM
bioavailability [15]: 0%
EC50 [4]: 9 nM
Activity [12]: >90%
bioavailability [21]: 2%
Vdss [22]: 6 L/kg
EC50 [23]: 36 nM
inhibition [24]: Active
chromatographic logD [5]: 7
EC50 [6]: 34 nM
EC50 [25]: 152 nM
CL free [16]: 102538 mL/min/kg
CL free [7]: 23136 mL/min/kg
CL free [26]: 61467 mL/min/kg
EC50 [27]: 34 nM
solubility [17]: < 1 µg/mL
inhibition [28]: Active
CC50 [8]: 661 nM
EC50 [1]: 21 nM
EC50 [9]: 25 nM
CL free [10]: 303 mL/min/kg
inhibition [29]: Active
inhibition [30]: Active
Vdss [18]: 5.7 L/kg
Activity [13]: 60%
MRT [19]: 42 min
MRT [31]: 54 min

CN(C)S(=O)(=O)c1ccc(N2CCCC2)c(-c2cc3cc(F)ccc3[nH]2)c1
EC50 [1]: 172 nM

CCS(=O)(=O)c1ccc(N2CC[C@H](O)C2)c(-c2cc3ccccc3[nH]2)c1
CC50 [2]: 4110 nM
CC50 [3]: 3800 nM
bioavailability [21]: 33%
Vdss [22]: 2.7 L/kg
chromatographic logD [5]: 4.3
EC50 [6]: 116 nM
EC50 [25]: 307 nM
CL free [26]: 706 mL/min/kg
solubility [17]: 130 µg/mL (≈ 351 µM)
CL free [32]: < 49 mL/min/kg
EC50 [1]: 36 nM
EC50 [9]: 58 nM
CL free [10]: < 19 mL/min/kg
MRT [31]: 84 min

Cc1ccc2cc(-c3cc(S(=O)(=O)N(C)CC(=O)NCCC4(CCNC(=O)O[C@@H]5CC/C=C/CCC5)N=N4)ccc3N3CCCC3)[nH]c2c1
EC50 [1]: 827 nM

CN(C)S(=O)(=O)c1ccc(N2CCCC2)c(-c2nc3ccccc3[nH]2)c1
EC50 [1]: 4420 nM

CN(C)S(=O)(=O)c1ccc(N2CCCC2)c(-c2cc3cccnc3[nH]2)c1
EC50 [1]: 409 nM
